Source: patent US12539292B2, “BRM targeting compounds and associated methods of use” (Arvinas Operations, Inc., priority 2018, dated 2026)
Like-named read-outs stand apart in the source and are kept apart here.

Target: T1, BRM (Homo sapiens, UniProt P51531)
T1 construct: In-Cell Western Screen of BRM Degradation in SW1573 Cells; endogenous in cells; host or cells: SW1573
Experiment: In-cell Western screen of BRM degradation in SW1573 cells (Dmax and DC50)
Type: cell-based
In short: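 SW1573 cells were treated overnight (18-20 hours) with compound at 0.1% final DMSO. They were then PFA-fixed, permeabilised with Triton X-100 and immunostained with 800 nm/680 nm secondary antibodies. BRM signal was quantified by LI-COR in-cell Western imaging to derive Dmax and DC50.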

[1] = BRM degradation, SW1573 cells, Table 2D, read-out: *DC50
[2] = SW1573, % degraded, when tested at the top concentration of between 0.3 and 10 μM, read-out: BRM Dmax (%)
[3] = target protein degradation, read-out: BRM DC50
[4] = BRM degradation, SW1573 cells, read-out: DC50
[5] = BRM degradation, SW1573 cells, tested at the top concentration of between 0.3 and 10 μM, read-out: Dmax (%) (% degraded)
[6] = degradation of BRM, read-out: BRM DC50
[7] = BRM degradation, SW1573 cells, when tested at the top concentration of between 0.3 and 10 μM, read-out: Dmax (%) (% degraded)

T1 sequence (P51531 whole entry): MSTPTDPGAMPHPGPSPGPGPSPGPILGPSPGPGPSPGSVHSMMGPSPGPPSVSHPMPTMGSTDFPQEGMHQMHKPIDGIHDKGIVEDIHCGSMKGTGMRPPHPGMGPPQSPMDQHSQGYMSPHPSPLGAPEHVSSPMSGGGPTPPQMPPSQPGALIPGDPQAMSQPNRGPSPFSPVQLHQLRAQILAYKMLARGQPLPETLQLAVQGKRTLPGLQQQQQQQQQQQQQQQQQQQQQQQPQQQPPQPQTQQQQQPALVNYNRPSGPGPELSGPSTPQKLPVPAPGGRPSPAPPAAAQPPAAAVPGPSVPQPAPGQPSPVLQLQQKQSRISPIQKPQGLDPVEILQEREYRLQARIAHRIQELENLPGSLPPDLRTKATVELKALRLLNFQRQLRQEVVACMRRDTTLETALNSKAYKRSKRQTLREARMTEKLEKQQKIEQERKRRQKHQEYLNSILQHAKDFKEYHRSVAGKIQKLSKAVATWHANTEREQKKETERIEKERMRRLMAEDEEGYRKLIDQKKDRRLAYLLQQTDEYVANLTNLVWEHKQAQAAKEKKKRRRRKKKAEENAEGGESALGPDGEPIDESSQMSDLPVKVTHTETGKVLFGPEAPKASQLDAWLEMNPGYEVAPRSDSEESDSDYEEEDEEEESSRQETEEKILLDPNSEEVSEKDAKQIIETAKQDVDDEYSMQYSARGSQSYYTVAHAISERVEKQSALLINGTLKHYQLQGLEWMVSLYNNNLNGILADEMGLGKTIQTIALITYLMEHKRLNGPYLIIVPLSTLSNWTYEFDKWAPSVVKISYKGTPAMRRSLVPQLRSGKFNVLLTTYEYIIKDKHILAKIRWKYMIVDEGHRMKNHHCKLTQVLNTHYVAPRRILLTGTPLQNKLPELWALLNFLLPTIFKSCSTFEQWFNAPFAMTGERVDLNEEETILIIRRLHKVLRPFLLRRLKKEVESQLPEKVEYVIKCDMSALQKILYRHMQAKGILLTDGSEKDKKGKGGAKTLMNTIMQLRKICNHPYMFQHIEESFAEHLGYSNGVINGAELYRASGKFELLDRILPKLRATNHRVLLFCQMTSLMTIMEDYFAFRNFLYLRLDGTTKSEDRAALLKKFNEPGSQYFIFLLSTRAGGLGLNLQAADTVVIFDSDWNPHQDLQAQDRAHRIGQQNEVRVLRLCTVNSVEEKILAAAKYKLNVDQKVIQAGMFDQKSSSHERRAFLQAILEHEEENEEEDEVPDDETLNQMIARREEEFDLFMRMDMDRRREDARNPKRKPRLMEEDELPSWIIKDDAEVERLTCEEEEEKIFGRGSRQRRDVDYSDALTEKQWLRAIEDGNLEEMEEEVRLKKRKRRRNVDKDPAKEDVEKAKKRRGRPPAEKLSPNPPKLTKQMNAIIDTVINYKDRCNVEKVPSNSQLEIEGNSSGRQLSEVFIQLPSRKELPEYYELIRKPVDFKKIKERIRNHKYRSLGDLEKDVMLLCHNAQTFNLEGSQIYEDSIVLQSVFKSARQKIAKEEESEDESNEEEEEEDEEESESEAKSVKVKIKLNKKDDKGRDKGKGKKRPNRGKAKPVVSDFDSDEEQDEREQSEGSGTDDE

With `Cc1ncsc1-c1cnc([C@H](C)NC(=O)[C@@H]2C[C@@H](O)CN2C(=O)[C@H](c2cc(N3CCC(CN4CCC(O[C@H]5C[C@H](Oc6cc(N7C8CCC7CN(c7cc(-c9ccccc9O)nnc7N)C8)ccn6)C5)CC4)CC3)no2)C(C)C)cn1` [compound 589, (2S,4R)-1-((2S)-2-(3-(4-((4-((1r,3r)-3-((4-(3-(3-amino-6-(2-hydroxyphenyl)pyridazin-4-yl)-3,8-diazabicyclo[3.2.1]octan-8-yl)pyridin-2-yl)oxy)cyclobutoxy)piperidin-1-yl)methyl)piperidin-1-yl)isoxazol-5-yl)-3-methylbutanoyl)-4-hydroxy-N-((S)-1-(5-(4-methylthiazol-5-yl)pyrazin-2-yl)ethyl)pyrrolidine-2-carboxamide] the DC50 [1] was over 30 nM.

Compound `CC(C)[C@@H](C(=O)N1C[C@H](O)C[C@H]1C(=O)N[C@@H](C)c1ccc(-c2nncs2)cc1)c1cc(OCCN2CCC(O[C@H]3C[C@H](Oc4cc(N5C6CCC5CN(c5cc(-c7ccccc7O)nnc5N)C6)ccn4)C3)CC2)no1` [compound 364, (2S,4R)-N-((S)-1-(4-(1,3,4-thiadiazol-2-yl)phenyl)ethyl)-1-((2R)-2-(3-(2-(4-((1r,3R)-3-((4-(3-(3-amino-6-(2-hydroxyphenyl)pyridazin-4-yl)-3,8-diazabicyclo[3.2.1]octan-8-yl)pyridin-2-yl)oxy)cyclobutoxy)piperidin-1-yl)ethoxy)isoxazol-5-yl)-3-methylbutanoyl)-4-hydroxypyrrolidine-2-carboxamide] has a Dmax [2] of over 75% and a DC50 [3] of over 30 nM.

`Cc1ncsc1-c1ccc([C@H](C)NC(=O)[C@@H]2C[C@@H](O)CN2C(=O)[C@@H](c2cc(N3CCC(OC4CCN(C[C@H]5C[C@H](Oc6cc(N7C8CCC7CN(c7cc(-c9ccccc9O)nnc7N)C8)ccn6)C5)CC4)CC3)no2)C(C)C)cn1` [compound 476, (2S,4R)-1-((2R)-2-(3-(4-((1-(((1r,3r)-3-((4-(3-(3-amino-6-(2-hydroxyphenyl)pyridazin-4-yl)-3,8-diazabicyclo[3.2.1]octan-8-yl)pyridin-2-yl)oxy)cyclobutyl)methyl)piperidin-4-yl)oxy)piperidin-1-yl)isoxazol-5-yl)-3-methylbutanoyl)-4-hydroxy-N-((S)-1-(6-(4-methylthiazol-5-yl)pyridin-3-yl)ethyl)pyrrolidine-2-carboxamide] gave a Dmax [2] of over 75% and a DC50 [3] of under 2.5 nM.

`Cc1ncsc1-c1ccc([C@H](C)NC(=O)[C@@H]2C[C@@H](O)CN2C(=O)[C@@H](c2cc(N3CCC(CN4CCN(CC5CC(Oc6cc(N7C8CC[C@@H]7CN(c7cc(-c9ccccc9O)nnc7N)C8)ccn6)C5)CC4)CC3)no2)C(C)C)cc1` (stereo partly drawn) [compound 608, (2S,4R)-1-((2R)-2-(3-(4-((4-(((1r,3r)-3-((4-(3-(3-amino-6-(2-hydroxyphenyl)pyridazin-4-yl)-3,8-diazabicyclo[3.2.1]octan-8-yl)pyridin-2-yl)oxy)cyclobutyl)methyl)piperazin-1-yl)methyl)piperidin-1-yl)isoxazol-5-yl)-3-methylbutanoyl)-4-hydroxy-N-((S)-1-(4-(4-methylthiazol-5-yl)phenyl)ethyl)pyrrolidine-2-carboxamide] was tested, and the “**Dmax (%) (% degraded)” value (BRM degradation, SW1573 cells, Table 2D) was “A (A > 75)” and the DC50 [1] was under 2.5 nM.

In the case of `Cc1ncsc1-c1cnc([C@H](C)NC(=O)[C@@H]2C[C@@H](O)CN2C(=O)[C@H](c2cc(OCCN3CCC(O[C@H]4C[C@H](Oc5cc(N6C7CCC6CN(c6cc(-c8ccccc8O)nnc6N)C7)ccn5)C4)CC3)no2)C(C)C)cn1` [compound 490, (2S,4R)-1-((2S)-2-(3-(2-(4-((1r,3S)-3-((4-(3-(3-amino-6-(2-hydroxyphenyl)pyridazin-4-yl)-3,8-diazabicyclo[3.2.1]octan-8-yl)pyridin-2-yl)oxy)cyclobutoxy)piperidin-1-yl)ethoxy)isoxazol-5-yl)-3-methylbutanoyl)-4-hydroxy-N-((S)-1-(5-(4-methylthiazol-5-yl)pyrazin-2-yl)ethyl)pyrrolidine-2-carboxamide], the DC50 [3] is reported as over 30 nM.

In the case of `Cc1ncsc1-c1ccc([C@H](C)NC(=O)[C@@H]2C[C@@H](O)CN2C(=O)[C@H](c2onc(OCCN3CCN(CCOc4cc(N5C6CCC5CN(c5cc(-c7ccccc7O)nnc5N)C6)ccn4)CC3)c2F)C(C)C)cc1` [compound 198, (2S,4R)-1-((2S)-2-(3-(2-(4-(2-((4-(3-(3-amino-6-(2-hydroxyphenyl)pyridazin-4-yl)-3,8-diazabicyclo[3.2.1]octan-8-yl)pyridin-2-yl)oxy)ethyl)piperazin-1-yl)ethoxy)-4-fluoroisoxazol-5-yl)-3-methylbutanoyl)-4-hydroxy-N-((S)-1-(4-(4-methylthiazol-5-yl)phenyl)ethyl)pyrrolidine-2-carboxamide], the DC50 [4] is reported as 10 to 30 nM and the Dmax [5] is reported as over 75%.

For `Cc1ncsc1-c1ccc([C@H](C)NC(=O)[C@@H]2C[C@@H](O)CN2C(=O)[C@@H](c2cc(N3CCN(CC4CCN(C[C@H]5C[C@H](Oc6cc(N7C8CCC7CN(c7cc(-c9ccccc9O)nnc7N)C8)ccn6)C5)CC4)CC3)no2)C(C)C)cn1` [compound 427, (2S,4R)-1-((2R)-2-(3-(4-((1-(((1r,3r)-3-((4-(3-(3-amino-6-(2-hydroxyphenyl)pyridazin-4-yl)-3,8-diazabicyclo[3.2.1]octan-8-yl)pyridin-2-yl)oxy)cyclobutyl)methyl)piperidin-4-yl)methyl)piperazin-1-yl)isoxazol-5-yl)-3-methylbutanoyl)-4-hydroxy-N-((S)-1-(6-(4-methylthiazol-5-yl)pyridin-3-yl)ethyl)pyrrolidine-2-carboxamide], the Dmax [2] was over 75% and the DC50 [6] was under 2.5 nM.

Compound `Cc1ncoc1-c1ccc([C@H](C)NC(=O)[C@@H]2C[C@@H](O)CN2C(=O)[C@H](c2cc(OCCN3CCN(CCOc4cc(N5C6CCC5CN(c5cc(-c7ccccc7O)nnc5N)C6)ccn4)CC3)no2)C(C)C)cn1` [compound 161, (2S,4R)-1-((2S)-2-(3-(2-(4-(2-((4-(3-(3-amino-6-(2-hydroxyphenyl)pyridazin-4-yl)-3,8-diazabicyclo[3.2.1]octan-8-yl)pyridin-2-yl)oxy)ethyl)piperazin-1-yl)ethoxy)isoxazol-5-yl)-3-methylbutanoyl)-4-hydroxy-N-((S)-1-(6-(4-methyloxazol-5-yl)pyridin-3-yl)ethyl)pyrrolidine-2-carboxamide] has a DC50 [4] of over 30 nM and a Dmax [5] of under 50%.

In the case of `Cc1ncsc1-c1ncc([C@H](C)NC(=O)[C@@H]2C[C@@H](O)CN2C(=O)[C@@H](c2cc(OCCN3CCC(O[C@H]4C[C@H](Oc5cc(N6C7CCC6CN(c6cc(-c8ccccc8O)nnc6N)C7)ccn5)C4)CC3)no2)C(C)C)cn1` [compound 430, (2S,4R)-1-((2R)-2-(3-(2-(4-((1r,3R)-3-((4-(3-(3-amino-6-(2-hydroxyphenyl)pyridazin-4-yl)-3,8-diazabicyclo[3.2.1]octan-8-yl)pyridin-2-yl)oxy)cyclobutoxy)piperidin-1-yl)ethoxy)isoxazol-5-yl)-3-methylbutanoyl)-4-hydroxy-N-((S)-1-(2-(4-methylthiazol-5-yl)pyrimidin-5-yl)ethyl)pyrrolidine-2-carboxamide], the Dmax [2] is reported as over 75% and the DC50 [6] is reported as 2.5 to 10 nM.

Work on `Cc1ncsc1-c1ccc([C@H](C)NC(=O)[C@@H]2C[C@@H](O)CN2C(=O)[C@H](c2cc(N3CCC(CO[C@H]4C[C@H](Oc5cc(N6C7CCC6CN(c6cc(-c8ccccc8O)nnc6N)C7)ccn5)C4)CC3)no2)C(C)C)cc1` [compound 433, (2S,4R)-1-((2S)-2-(3-(4-(((1r,3S)-3-((4-(3-(3-amino-6-(2-hydroxyphenyl)pyridazin-4-yl)-3,8-diazabicyclo[3.2.1]octan-8-yl)pyridin-2-yl)oxy)cyclobutoxy)methyl)piperidin-1-yl)isoxazol-5-yl)-3-methylbutanoyl)-4-hydroxy-N-((S)-1-(4-(4-methylthiazol-5-yl)phenyl)ethyl)pyrrolidine-2-carboxamide] yielded a Dmax [2] of over 75% and a DC50 [6] of 2.5 to 10 nM.

For `Cc1ncsc1-c1ccc([C@H](C)NC(=O)[C@@H]2C[C@@H](O)CN2C(=O)[C@@H](c2cc(OCCN3CCN(CCOc4cc(N5C6CCC5CN(c5cc(-c7ccccc7O)nnc5N)C6)ccn4)CC3)no2)C(C)C)cc1` [compound 47], the DC50 [4] was under 2.5 nM and the Dmax [7] was over 75%.

With `Cc1ncsc1-c1ccc([C@H](C)NC(=O)[C@@H]2C[C@@H](O)CN2C(=O)[C@H](c2cc(OCC[C@@H]3CCN(C[C@H]4C[C@H](Oc5cc(N6C7CCC6CN(c6cc(-c8ccccc8O)nnc6N)C7)ccn5)C4)[C@@H](C)C3)no2)C(C)C)cc1` (racemic) [compound 581, (2S,4R)-1-((2S)-2-(3-(2-((2S,4R)-1-(((1r,3S)-3-((4-(3-(3-amino-6-(2-hydroxyphenyl)pyridazin-4-yl)-3,8-diazabicyclo[3.2.1]octan-8-yl)pyridin-2-yl)oxy)cyclobutyl)methyl)-2-methylpiperidin-4-yl)ethoxy)isoxazol-5-yl)-3-methylbutanoyl)-4-hydroxy-N-((S)-1-(4-(4-methylthiazol-5-yl)phenyl)ethyl)pyrrolidine-2-carboxamide] the Dmax (BRM degradation, SW1573 cells, Table 2D, read-out: **Dmax (%) (% degraded)) was over 75% and the DC50 [1] was under 2.5 nM.

`Cc1ncsc1-c1ccc(CNC(=O)[C@@H]2C[C@@H](O)CN2C(=O)[C@@H](NC(=O)Cc2ccc(N3CCN(CCOCCCc4cc(N5C6CCC5CN(c5cc(-c7ccccc7O)nnc5N)C6)ccn4)CC3)nc2)C(C)(C)C)cc1` [compound 31, (2S,4R)-1-((2S)-2-(2-(6-(4-(2-(3-(4-(3-(3-amino-6-(2-hydroxyphenyl)pyridazin-4-yl)-3,8-diazabicyclo[3.2.1]octan-8-yl)pyridin-2-yl)propoxy)ethyl)piperazin-1-yl)pyridin-3-yl)acetamido)-3,3-dimethylbutanoyl)-4-hydroxy-N-(4-(4-methylthiazol-5-yl)benzyl)pyrrolidine-2-carboxamide] was tested, and the DC50 [4] was 10 to 30 nM and the Dmax [7] was over 75%.
